Data reported in patent publication US20120035247A1, “RNA Interference Mediated Inhibition of Signal Transducer and Activator of Transcription 6 (STAT6) Gene Expression Using Short Interfering Nucleic Acid (siNA)” (Merck Sharp & Dohme Corp., priority 2009, published 2012).
[invAb] = inverted abasic unit; m = 2'-O-methyl; r = 2'-OH (RNA); f = 2'-fluoro

Legend:
STAT6 mRNA [1] = experiment: STAT6 siNA screen and dose response in human A549 cells, STAT6 mRNA by quantitative RT-PCR (Taqman); assay type: cell-based; conditions: for % KD STAT6 mRNA 10 nM / IC50: Table 4, human A549 cells; for % KD STAT6 mRNA 10 nM / IC50 / % KD STAT6: mean ± S.D.; for % KD STAT6 10 nM: Table 5, A549 cells, three experiments, mean ± standard deviation; for % KD STAT6: human A549 cells, 10 nM siNA, 24 hrs, normalized to GAPDH and non-targeting control, n = 3
Summary of the method: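 A549 cells were transfected with siNA–RNAiMax complexes at a final 10 nM siNA and incubated 24 h without a medium change. STAT6 mRNA was measured by TaqMan qRT-PCR on cell lysates. Knock-down was calculated by the comparative Ct (ΔΔCt) method against the non-targeting control siNA, with relative expression taken as 2^−ΔΔCt.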

STAT6 mRNA [2] = experiment: STAT6 siNA screen in mouse NIH 3T3 cells, STAT6 mRNA by quantitative RT-PCR (Taqman); assay type: cell-based; conditions: mouse NIH3T3 cells, 10 nM siNA, 24 hrs, normalized to GAPDH and non-targeting control, n = 2
Summary of the method: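 NIH 3T3 cells, 5000/well, transfected after 24 h with siNA (10 nM final) via RNAiMax and harvested 24 h later. STAT6 mRNA quantified by TaqMan RT-qPCR with GAPDH; knock-down by comparative Ct (2^−ΔΔCt) against non-targeting control siNA.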

Row | Substance | % KD STAT6 mRNA 10 nM (STAT6 mRNA [1]) [%] | IC50 (STAT6 mRNA [1]) [pM] | % KD STAT6 10 nM (STAT6 mRNA [1]) [%] | % KD STAT6 (STAT6 mRNA [1]) [%] | % KD STAT6 (STAT6 mRNA [2]) [%]
1 | 29990-DC: STAT6 siNA duplex; sense SEQ ID NO: 44, antisense SEQ ID NO: 45; target GUGAAAGCCUGGUGGACAU, site 954 (sense GUGAAAGCCUGGUGGACAUTT; antisense AUGUCCACCAGGCUUUCACUU; sense: DNA at AGT, 2'-fluoro at CU, [invAb] at 5' end, 3' end, backbone not given here; antisense: sugars from the 5' end rrrfffmffmmmfffffmfmm, backbone not given here) [STAT6 siNA duplex; target GUGAAAGCCUGGUGGACAU, site 954] | 71.7 ± 1.8 | 23 ± 8.7 | 71.7 ± 1.8 | 71.7 ± 1.8 | 41.6 ± 7.4
2 | 29997-DC: STAT6 siNA duplex; sense SEQ ID NO: 58, antisense SEQ ID NO: 59; target CUACCAUGGUGCCUUCUUA, site 2262 (sense CUACCAUGGUGCCUUCUUATT; antisense UAAGAAGGCACCAUGGUAGUU; sense: DNA at AGT, 2'-fluoro at CU, [invAb] at 5' end, 3' end, backbone not given here; antisense: sugars from the 5' end rrrmmmmmfmffmfmmfmmmm, backbone not given here) [STAT6 siNA duplex; target CUACCAUGGUGCCUUCUUA, site 2262] | 68.1 ± 6.2 | 18.1 ± 8.3 | 68.1 ± 6.2 | 68.1 ± 6.2 | 28.7 ± 6.1
3 | 30008-DC: STAT6 siNA duplex; sense SEQ ID NO: 80, antisense SEQ ID NO: 81; target CUGCUCUGCUCAGAUGUGA, site 2549 (sense CUGCUCUGCUCAGAUGUGATT; antisense UCACAUCUGAGCAGAGCAGUU; sense: DNA at AGT, 2'-fluoro at CU, [invAb] at 5' end, 3' end, backbone not given here; antisense: sugars from the 5' end rrrfmfffmmmfmmmmfmmmm, backbone not given here) [STAT6 siNA duplex; target CUGCUCUGCUCAGAUGUGA, site 2549] | 72.6 ± 4.5 | 21.6 ± 12.4 | 72.6 ± 4.5 | 72.6 ± 4.5 | 77.9 ± 7.5
